Test results published in US9067891B2, “1,4-disubstituted 3-cyano-pyridone derivatives and their use as positive allosteric modulators of mGluR2-receptors” (JANSSEN PHARMACEUTICALS, INC., priority 2007, dated 2015).
Several values for one entry are separate records, joined by “and”; a condition that tells them apart may be missing. Equal entries are not always repeated.

How the values were obtained:
human mGluR2 receptor = biological target: T1, human mGluR2 receptor (Homo sapiens, UniProt Q14416); test: [35S]GTPγS binding assay (GTPγS-PAM), membranes from CHO cells transfected with human mGluR2; format: biochemical; conditions: positive allosteric modulation in presence of glutamate at predetermined EC25 concentration, averages of duplicate values of 11-concentration response curves, pEC50 = -logEC50, error about 0.3 log-units; for EC50: read-out: GTPgS - hR2 PAM pEC50 (converted)
T1 construct: expressed in transfected cells; host or cells: CHO cells (membrane preparation)
T1 sequence (Q14416 19-872): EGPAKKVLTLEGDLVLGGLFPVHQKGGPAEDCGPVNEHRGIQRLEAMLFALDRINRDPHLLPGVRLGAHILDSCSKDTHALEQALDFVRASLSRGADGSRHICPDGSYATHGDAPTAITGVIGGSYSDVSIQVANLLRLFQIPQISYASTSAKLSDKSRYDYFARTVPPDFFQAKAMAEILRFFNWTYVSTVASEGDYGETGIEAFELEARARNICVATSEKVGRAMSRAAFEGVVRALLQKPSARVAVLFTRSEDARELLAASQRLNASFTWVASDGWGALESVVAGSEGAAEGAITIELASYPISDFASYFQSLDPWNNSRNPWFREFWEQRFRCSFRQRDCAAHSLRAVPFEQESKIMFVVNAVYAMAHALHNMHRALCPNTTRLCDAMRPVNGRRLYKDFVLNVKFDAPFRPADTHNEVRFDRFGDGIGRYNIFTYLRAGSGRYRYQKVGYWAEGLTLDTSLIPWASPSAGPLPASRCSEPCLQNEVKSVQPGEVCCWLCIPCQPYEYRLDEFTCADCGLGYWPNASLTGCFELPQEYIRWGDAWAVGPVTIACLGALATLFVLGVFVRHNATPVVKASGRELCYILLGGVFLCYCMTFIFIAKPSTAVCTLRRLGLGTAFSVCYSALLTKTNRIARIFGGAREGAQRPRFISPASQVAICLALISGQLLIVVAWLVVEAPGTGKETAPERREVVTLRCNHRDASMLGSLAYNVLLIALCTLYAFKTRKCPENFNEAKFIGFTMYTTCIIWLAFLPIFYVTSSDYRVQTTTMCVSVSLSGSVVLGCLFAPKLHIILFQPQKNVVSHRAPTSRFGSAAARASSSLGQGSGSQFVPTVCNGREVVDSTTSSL
Text: The compounds provided in the present invention are positive allosteric modulators of mGluR2. These compounds appear to potentiate glutamate responses by binding to an allosteric site other than the glutamate binding site. The response of mGluR2 to a concentration of glutamate is increased when compounds of formula (I) are present. Compounds of formula (I) are expected to have their effect substantially at mGluR2 by virtue of their ability to enhance the function of the receptor. The behaviour of positive allosteric modulators tested at mGluR2 using the [^35S]GTPγS binding assay method described below and which is suitable for the identification of such compounds, and more particularly the compounds according to formula (I), are shown in Table 3.
[^35S]GTPγS Binding Assay
The [^35S]GTPγS binding assay is a functional membrane-based assay used to study G-protein coupled receptor (GPCR) function whereby incorporation of a non-hydrolysable form of GTP, [^35S]GTPγS (guanosine 5′-triphosphate, labelled with […] ^35S), is measured. The G-protein […] catalyzes the exchange of guanosine 5′-diphosphate (GDP) by guanosine triphosphate (GTP) and on activation of the GPCR by an agonist, [^35S]GTPγS, becomes incorporated and cannot be cleaved to continue the exchange cycle (Harper (1998) Current Protocols in Pharmacology 2.6.1-10, John Wiley & Sons, Inc.). […] Here we describe the use of the [^35S]GTPγS binding assay using membranes from cells transfected with the human mGluR2 receptor and adapted from Sehaffhauser et al ((2003) Molecular Pharmacology 4:798-810) for the detection of the positive allosteric modulation (PAM) properties of the compounds of this invention.
CHO-cells were cultured to pre-confluence and stimulated with 5 mM butyrate for 24 hours, prior to washing in PBS, and then collection by scraping in homogenisation buffer (50 mM Tris-HCl buffer, pH 7.4, 4° C.). Cell lysates were homogenized briefly (15 s) using an ultra-turrax homogenizer. The homogenate was centrifuged at 23 500×g for 10 minutes and the supernatant discarded. The pellet was resuspended in 5 mM Tris-HCl, pH 7.4 and centrifuged again (30 000×g, 20 min, 4° C.). The final pellet was resuspended in 50 mM HEPES, pH 7.4 and stored at −80° C. in appropriate aliquots before use. Protein concentration was determined by the Bradford method (Bio-Rad, USA) with bovine serum albumin as standard.
Measurement of mGluR2 positive allosteric modulatory activity of test compounds in membranes containing human mGluR2 was performed using frozen membranes that were thawed and briefly homogenised prior to pre-incubation in 96-well microplates (15 μg/assay well, 30 minutes, 30° C.) in assay buffer (50 mM HEPES pH 7.4, 100 mM NaCl, 3 mM MgCl2, 50 μM GDP, 10 μg/ml saponin,) with increasing concentrations of positive allosteric modulator (from 0.3 nM to 50 μM) and either a minimal pre-determined concentration of glutamate (PAM assay), or no added glutamate. For the PAM assay, membranes were pre-incubated with glutamate at EC25 concentration, i.e. a concentration that gives 25% of the maximal response glutamate, and is in accordance to published data (Pin et al. (1999) Eur. J. Pharmacol. 375:277-294). After addition of [^35S]GTPγS (0.1 nM, f.c.) to achieve a total reaction volume of 200 μl, microplates were shaken briefly and further incubated to allow [^35S]GTPγS incorporation on activation (30 minutes, 30° C.). The reaction was stopped by rapid vacuum filtration over glass-fibre filter plates (Unifilter 96-well GF/B filter plates, Perkin-Elmer, Downers Grove, USA) microplate using a 96-well plate cell harvester (Filtermate, Perkin-Elmer, USA), and then by washing three times with 300 μl of ice-cold wash buffer (Na2PO4.2H20 10 mM, NaH2PO4.H20 10 mM, pH=7.4). […]

Row | EC50 (human mGluR2 receptor) [nM] | melting point | GTPgS - hR2 PAM pEC50 (human mGluR2 receptor) | SMILES
1 | 631 | – | – | CCCCn1ccc(-c2ccc(Oc3ccncc3Cl)cc2)c(C#N)c1=O [Compound 20]
2 | 794 | – | – | Cc1cc(Oc2ccc(-c3ccn(CC4CC4)c(=O)c3C#N)c(F)c2)cc(C)n1 [Compound 8, 1-Cyclopropylmethyl-4-[4-(2,6-dimethyl-pyridin-4-yloxy)-2-fluoro-phenyl]-2-oxo-1,2-dihydro-pyridine-3-carbonitrile]
3 | 158 | – | – | N#Cc1c(-c2ccc(Oc3ccnc(Cl)c3)cc2)ccn(CC2CC2)c1=O [Compound 19]
4 | 437 | 169.9 °C | – | CCCCn1ccc(-c2ccc(Oc3cc(C)nc(C)c3)cc2F)c(C#N)c1=O [Compound 6, 1-Butyl-4-[4-(2,6-dimethyl-pyridin-4-yloxy)-2-fluoro-phenyl]-2-oxo-1,2-dihydro-pyridine-3-carbonitrile]
5 | 813 | 137 °C | – | Cc1cc(C)nc(Oc2ccc(-c3ccn(CC4CC4)c(=O)c3C#N)c(F)c2)c1 [Compound 1, 1-Cyclopropylmethyl-4-[4-(4,6-dimethyl-pyridin-2-yloxy)-2-fluoro-phenyl]-2-oxo-1,2-dihydro-pyridine-3-carbonitrile]
6 | 347 | – | – | CCCCn1ccc(-c2ccc(Oc3cc(C)nc(C)c3)c(F)c2)c(C#N)c1=O [Compound 7, 1-Butyl-4-[4-(2,6-dimethyl-pyridin-4-yloxy)-3-fluoro-phenyl]-2-oxo-1,2-dihydro-pyridine-3-carbonitrile]
7 | 437 | 125.2 °C and 125.4 °C | – | CCCCn1ccc(-c2ccc(Oc3ccnc(C)c3)c(F)c2)c(C#N)c1=O [Compound 5, 1-Butyl-4-[3-fluoro-4-(2-methyl-pyridin-4-yloxy)-phenyl]-2-oxo-1,2-dihydro-pyridine-3-carbonitrile]
8 | 708 | 201.2 °C | – | Cc1cc(Oc2ccc(-c3ccn(CC4CC4)c(=O)c3C#N)cc2F)cc(C)n1 [Compound 9, 1-Cyclopropylmethyl-4-[4-(2,6-dimethyl-pyridin-4-yloxy)-3-fluoro-phenyl]-2-oxo-1,2-dihydro-pyridine-3-carbonitrile]
9 | 372 | – | – | Cc1nccc(Oc2ccc(-c3ccn(CC4CC4)c(=O)c3C#N)c(F)c2)c1C [Compound 10, 1-Cyclopropylmethyl-4-[4-(2,3-dimethyl-pyridin-4-yloxy)-2-fluoro-phenyl]-2-oxo-1,2-dihydro-pyridine-3-carbonitrile]
10 | 708 | 172.2 °C | – | CCCCn1ccc(-c2cc(F)c(Oc3ccnc(C)c3)c(F)c2)c(C#N)c1=O [Compound 15]
11 | 437 | 136.7 °C | – | CCCCn1ccc(-c2ccc(Oc3cccnc3C)cc2)c(C#N)c1=O [Compound 16]
12 | 380 | 145.8 °C | – | Cc1ncccc1Oc1ccc(-c2ccn(CCC3CC3)c(=O)c2C#N)cc1F [Compound 14]
13 | – | 127.1 °C | 6.41 | CCCCn1ccc(-c2ccc(Oc3ccnc(C)c3)cc2F)c(C#N)c1=O [Compound 4, 1-Butyl-4-[2-fluoro-4-(2-methyl-pyridin-4-yloxy)-phenyl]-2-oxo-1,2-dihydro-pyridine-3-carbonitrile]
14 | – | 121 °C | – | CCCCn1ccc(-c2ccc(Oc3ccnc(C)c3)cc2)c(C#N)c1=O [Compound 18, 3-cyano-1-butyl-4-[4-(2-methyl-pyridin-4-yloxy)-phenyl]-pyridine-2(1H)-one]
15 | 1000 | – | – | CCCCn1ccc(-c2ccc(Oc3cc(C)ccn3)cc2)c(C#N)c1=O [Compound 17]
16 | 676 | – | – | Cc1nccc(Oc2ccc(-c3ccn(CC4CC4)c(=O)c3C#N)cc2F)c1C [Compound 11, 1-Cyclopropylmethyl-4-[4-(2,3-dimethyl-pyridin-4-yloxy)-3-fluoro-phenyl]-2-oxo-1,2-dihydro-pyridine-3-carbonitrile]
17 | 417 | 110.7 °C | – | Cc1cc(Oc2ccc(-c3ccn(CCC4CC4)c(=O)c3C#N)c(F)c2)ccn1 [Compound 13]
18 | 537 | 104.8 °C | – | CCCCn1ccc(-c2ccc(Oc3cccnc3C)c(F)c2)c(C#N)c1=O [Compound 12]
19 | 457 | 152.7 °C | – | Cc1ccc(Oc2ccc(-c3ccn(CC4CC4)c(=O)c3C#N)cc2F)c(C)n1 [Compound 3, 1-Cyclopropylmethyl-4-[4-(2,6-dimethyl-pyridin-3-yloxy)-3-fluoro-phenyl]-2-oxo-1,2-dihydro-pyridine-3-carbonitrile]
20 | 138 | 156.4 °C | – | CCCCn1ccc(-c2ccc(Oc3ccc(C)nc3C)c(F)c2)c(C#N)c1=O [Compound 2, 1-Butyl-4-[4-(2,6-dimethyl-pyridin-3-yloxy)-3-fluoro-phenyl]-2-oxo-1,2-dihydro-pyridine-3-carbonitrile]
